Assay results reported in patent publication US9006450B2 (Boehringer Ingelheim International GmbH, priority 2010, dated 2015).

These compounds were tested against T1, human ACC2 (Homo sapiens, UniProt O00763) (assay: ACC2 assay, spectrophotometric 384 well assay (NADH-linked, coupled lactate dehydrogenase/pyruvate kinase)). Details: ACC2 assay, hACC2 construct lacking 128 N-terminal amino acids, 25° C., 340 nm; read-out: IC50.
T1 construct: made in house; host or cells: insect cells (baculoviral expression system)
T1 sequence (O00763 129-2458 limits assumed): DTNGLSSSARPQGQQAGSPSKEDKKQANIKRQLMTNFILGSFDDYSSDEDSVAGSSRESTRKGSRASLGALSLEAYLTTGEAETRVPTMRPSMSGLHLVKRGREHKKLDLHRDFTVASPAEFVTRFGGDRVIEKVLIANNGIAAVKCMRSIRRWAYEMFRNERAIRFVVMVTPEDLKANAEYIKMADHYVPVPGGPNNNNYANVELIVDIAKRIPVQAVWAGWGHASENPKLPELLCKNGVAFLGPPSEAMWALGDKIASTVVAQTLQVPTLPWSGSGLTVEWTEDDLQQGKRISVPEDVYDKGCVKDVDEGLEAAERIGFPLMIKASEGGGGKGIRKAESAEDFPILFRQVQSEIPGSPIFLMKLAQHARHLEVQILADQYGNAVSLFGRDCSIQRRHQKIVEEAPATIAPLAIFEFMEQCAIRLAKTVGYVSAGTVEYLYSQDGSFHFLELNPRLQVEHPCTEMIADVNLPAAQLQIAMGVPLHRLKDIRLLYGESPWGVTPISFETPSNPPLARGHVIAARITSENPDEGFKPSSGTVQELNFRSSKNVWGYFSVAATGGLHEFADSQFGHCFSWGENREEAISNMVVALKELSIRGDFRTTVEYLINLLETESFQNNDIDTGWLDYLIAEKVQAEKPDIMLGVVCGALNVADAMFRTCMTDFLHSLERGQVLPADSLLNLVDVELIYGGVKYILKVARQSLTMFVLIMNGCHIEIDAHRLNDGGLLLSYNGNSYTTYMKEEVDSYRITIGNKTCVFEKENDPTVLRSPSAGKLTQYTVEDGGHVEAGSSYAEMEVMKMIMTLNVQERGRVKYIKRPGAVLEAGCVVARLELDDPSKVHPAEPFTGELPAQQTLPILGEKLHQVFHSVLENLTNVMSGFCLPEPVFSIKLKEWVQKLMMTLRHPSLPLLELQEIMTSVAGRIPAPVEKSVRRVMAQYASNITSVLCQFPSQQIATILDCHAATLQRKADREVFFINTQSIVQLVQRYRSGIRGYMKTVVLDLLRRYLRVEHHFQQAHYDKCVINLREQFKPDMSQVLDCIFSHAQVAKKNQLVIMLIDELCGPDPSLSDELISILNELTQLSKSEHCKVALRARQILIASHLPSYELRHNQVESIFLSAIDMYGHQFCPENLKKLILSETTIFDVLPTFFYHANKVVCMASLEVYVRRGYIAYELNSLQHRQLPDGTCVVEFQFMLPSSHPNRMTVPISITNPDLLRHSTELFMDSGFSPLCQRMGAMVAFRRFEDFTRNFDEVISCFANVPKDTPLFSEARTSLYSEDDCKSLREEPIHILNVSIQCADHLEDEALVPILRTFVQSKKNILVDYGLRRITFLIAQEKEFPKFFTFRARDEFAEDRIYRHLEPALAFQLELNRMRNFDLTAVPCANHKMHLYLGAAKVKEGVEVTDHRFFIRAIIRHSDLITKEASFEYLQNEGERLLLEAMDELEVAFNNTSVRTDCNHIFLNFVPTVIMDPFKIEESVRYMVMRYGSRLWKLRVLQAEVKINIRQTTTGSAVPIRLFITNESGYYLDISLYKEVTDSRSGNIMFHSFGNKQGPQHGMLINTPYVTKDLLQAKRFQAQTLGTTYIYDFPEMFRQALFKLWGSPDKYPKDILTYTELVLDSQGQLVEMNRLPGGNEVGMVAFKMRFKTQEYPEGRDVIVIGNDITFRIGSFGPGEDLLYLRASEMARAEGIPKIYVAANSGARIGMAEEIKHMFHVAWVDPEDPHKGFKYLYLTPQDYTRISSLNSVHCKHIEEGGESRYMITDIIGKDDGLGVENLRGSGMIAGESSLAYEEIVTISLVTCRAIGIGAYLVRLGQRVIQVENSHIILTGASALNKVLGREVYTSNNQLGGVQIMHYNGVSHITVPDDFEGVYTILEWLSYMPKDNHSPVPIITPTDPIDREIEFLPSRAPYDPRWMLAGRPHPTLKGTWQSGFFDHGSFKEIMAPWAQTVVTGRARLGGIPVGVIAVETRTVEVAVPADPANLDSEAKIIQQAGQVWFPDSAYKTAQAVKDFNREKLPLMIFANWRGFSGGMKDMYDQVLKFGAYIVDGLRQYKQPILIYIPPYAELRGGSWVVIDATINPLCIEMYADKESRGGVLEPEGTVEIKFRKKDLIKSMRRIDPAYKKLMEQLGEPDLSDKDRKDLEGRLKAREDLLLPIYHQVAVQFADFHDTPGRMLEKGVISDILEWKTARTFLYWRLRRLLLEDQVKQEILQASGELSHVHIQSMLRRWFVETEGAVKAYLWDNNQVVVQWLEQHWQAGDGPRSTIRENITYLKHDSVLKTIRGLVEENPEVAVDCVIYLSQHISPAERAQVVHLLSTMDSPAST
Assay type: biochemical
Procedure, shortened: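 Human ACC2 lacking N-terminal 128 aa, baculovirus/insect-cell expressed, anion-exchange purified; 100 mM Tris pH 7.5, 10 mM citrate, 25 mM KHCO3, 1% DMSO. Started with 200 μM NADH and acetyl-CoA plus 500 μM ATP; PK/LDH-coupled A340 decrease read 15 min at 25° C. IC50 by nonlinear fit of low-control-subtracted slopes.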

Going from `CCCCOc1cccc(N2CCC(c3ccc([C@H](C)NC(C)=O)cc3)CC2)c1` [Example 8.6] to `COCCCOc1cccc(N2CCC(c3ccc([C@H](C)NC(C)=O)cc3)CC2)c1` [Example 9.9], the IC50 falls from 330 nM to 210 nM (1.6-fold).

First: CC(=O)N[C@@H](C)c1ccc(C2CCN(c3cccc(OC(C)C)c3)CC2)cc1 [Example 8.7]
Second: CCCC(C)Oc1cccc(N2CCC(c3ccc([C@H](C)NC(C)=O)cc3)CC2)c1 (stereo partly shown) [Example 9.2]
The IC50 of the first is 1.9-fold lower: 160 nM for the first, 300 nM for the second. The first is the more potent here.

Compared with `CCCOc1cnc(N2CCC(c3ccc([C@H](C)NC(C)=O)cc3)CC2)cn1` [Example 8.8], `CCCOc1ccc(N2CCC(c3ccc([C@H](C)NC(C)=O)cc3)CC2)cc1C` [Example 8.31] is 4.1-fold higher in IC50: 290 nM for the first, 1200 nM for the second.

First: CC(=O)N[C@@H](C)c1ccc(C2CCN(c3ccc(OC4COC4)cc3)CC2)cc1 [Example 8.9]
Second: CC(=O)N[C@@H](C)c1ccc(C2CCN(c3ccc(OCCC4CC4)cc3)CC2)cc1 [Example 8.63]
The IC50 of the first is 6-fold higher: 600 nM for the first, 100 nM for the second. The second is the more potent here.

First: CCOC(=O)C1(Oc2ccc(N3CCC(c4ccc([C@H](C)NC(C)=O)cc4)CC3)cc2)CCC1 [Example 8.10]
Second: CC(=O)N[C@@H](C)c1ccc(C2CCN(c3ccc(OCC4CC4(F)F)cc3)CC2)cc1 (stereo partly shown) [Example 8.66]
The IC50 of the first is 1.7-fold higher: 100 nM for the first, 60 nM for the second.

First: CC(=O)N[C@@H](C)c1ccc(C2CCN(c3ccc(OC4CCC4)c(C)c3)CC2)cc1 [Example 8.11]
Second: CC(=O)N[C@@H](C)c1ccc(C2CCN(c3ccc(OC4CCCC4)c(C)c3)CC2)cc1 [Example 8.35]
The IC50 of the first is 3.7-fold higher: 1800 nM for the first, 490 nM for the second. The second is the more potent here.

`CC(=O)N[C@@H](C)c1ccc(C2CCN(c3ccc(OC4CCC4)c(C#N)c3)CC2)cc1` [Example 8.12] and `CC(=O)N[C@@H](C)c1ccc(C2CCN(c3ccc(OC4CCCC4)c(C#N)c3)CC2)cc1` [Example 8.36] are within 1.5-fold of each other in IC50: 2300 nM for the first, 2200 nM for the second.

Compared with `CC(=O)N[C@@H](C)c1ccc(C2CCN(c3ccc(OC4CCC4)c(F)c3)CC2)cc1` [Example 8.13], `CC(=O)N[C@@H](C)c1ccc(C2CCN(c3ccc(OC4CCCC4)c(F)c3)CC2)cc1` [Example 8.37] is 6-fold higher in IC50: 110 nM for the first, 660 nM for the second. The first is the more potent here.

`CC(=O)N[C@@H](C)c1ccc(C2CCN(c3ccc(OC4CCC4)c(Cl)c3)CC2)cc1` [Example 8.14] and `CC(=O)N[C@@H](C)c1ccc(C2CCN(c3ccc(OC4CCCC4)c(Cl)c3)CC2)cc1` [Example 8.39] are within 1.5-fold of each other in IC50: 130 nM for the first, 110 nM for the second.

Going from `CCOc1ccc(N2CCC(c3ccc([C@H](C)NC(C)=O)cc3)CC2)cc1C` [Example 8.15] to `CCCCOc1ccc(N2CCC(c3ccc([C@H](C)NC(C)=O)cc3)CC2)cc1C` [Example 8.40], the IC50 rises from 830 nM to 1400 nM (1.7-fold).

Going from `CCOc1ccc(N2CCC(c3ccc([C@H](C)NC(C)=O)cc3)CC2)cc1C#N` [Example 8.16] to `CCCOc1ccc(N2CCC(c3ccc([C@H](C)NC(C)=O)cc3)CC2)cc1C#N` [Example 8.32], the IC50 falls from 5600 nM to 3200 nM (1.8-fold).

`CCOc1ccc(N2CCC(c3ccc([C@H](C)NC(C)=O)cc3)CC2)cc1F` [Example 8.17] and `CCCOc1ccc(N2CCC(c3ccc([C@H](C)NC(C)=O)cc3)CC2)cc1F` [Example 8.62] are within 1.5-fold of each other in IC50: 290 nM for the first, 200 nM for the second.

`CCOc1ccc(N2CCC(c3ccc([C@H](C)NC(C)=O)cc3)CC2)cc1OC` [Example 8.18] and `CCCOc1ccc(N2CCC(c3ccc([C@H](C)NC(C)=O)cc3)CC2)cc1OC` [Example 8.33] are within 1.5-fold of each other in IC50: 2700 nM for the first, 3500 nM for the second.

Compared with `COCCOc1ccc(N2CCC(c3ccc([C@H](C)NC(C)=O)cc3)CC2)cc1C` [Example 8.19], `COCCOc1ccc(N2CCC(c3ccc([C@H](C)NC(C)=O)cc3)CC2)cc1F` [Example 8.21] is 4-fold lower in IC50: 6000 nM for the first, 1500 nM for the second.

First: COCCOc1ccc(N2CCC(c3ccc([C@H](C)NC(C)=O)cc3)CC2)cc1C#N [Example 8.20]
Second: CCCCOc1ccc(N2CCC(c3ccc([C@H](C)NC(C)=O)cc3)CC2)cc1C#N [Example 8.41]
The IC50 of the first is 2.9-fold higher: 12000 nM for the first, 4200 nM for the second. The second is the more potent here.

First: COCCOc1ccc(N2CCC(c3ccc([C@H](C)NC(C)=O)cc3)CC2)cc1OC [Example 8.22]
Second: CCCCOc1ccc(N2CCC(c3ccc([C@H](C)NC(C)=O)cc3)CC2)cc1OC [Example 8.43]
The IC50 of the first is 7-fold higher: 14600 nM for the first, 2100 nM for the second.

`CC(=O)N[C@@H](C)c1ccc(C2CCN(c3ccc(OC(C)C)c(C)c3)CC2)cc1` [Example 8.23] and `CCC(C)Oc1ccc(N2CCC(c3ccc([C@H](C)NC(C)=O)cc3)CC2)cc1C` (stereo partly shown) [Example 8.51] are within 1.5-fold of each other in IC50: 570 nM for the first, 760 nM for the second.

First: CC(=O)N[C@@H](C)c1ccc(C2CCN(c3ccc(OC(C)C)c(C#N)c3)CC2)cc1 [Example 8.24]
Second: CCC(C)Oc1ccc(N2CCC(c3ccc([C@H](C)NC(C)=O)cc3)CC2)cc1C#N (stereo partly shown) [Example 8.52]
The IC50 of the first is 4.1-fold higher: 12400 nM for the first, 3000 nM for the second. The second is the more potent here.

First: CC(=O)N[C@@H](C)c1ccc(C2CCN(c3ccc(OC(C)C)c(Cl)c3)CC2)cc1 [Example 8.25]
Second: CCC(C)Oc1ccc(N2CCC(c3ccc([C@H](C)NC(C)=O)cc3)CC2)cc1Cl (stereo partly shown) [Example 8.55]
The IC50 of the first is 2.4-fold higher: 710 nM for the first, 300 nM for the second.

Going from `CC(=O)N[C@@H](C)c1ccc(C2CCN(c3ccc(OCC(C)C)c(C)c3)CC2)cc1` [Example 8.26] to `CC(=O)N[C@@H](C)c1ccc(C2CCN(c3ccc(OCC(C)C)c(F)c3)CC2)cc1` [Example 8.28], the IC50 falls from 840 nM to 150 nM (5.6-fold).

Going from `CC(=O)N[C@@H](C)c1ccc(C2CCN(c3ccc(OCC(C)C)c(C#N)c3)CC2)cc1` [Example 8.27] to `CC(=O)N[C@@H](C)c1ccc(C2CCN(c3ccc(OCC(C)C)c(Cl)c3)CC2)cc1` [Example 8.30], the IC50 falls from 2600 nM to 160 nM (16-fold). The second is the more potent here.

Going from `COc1cc(N2CCC(c3ccc([C@H](C)NC(C)=O)cc3)CC2)ccc1OCC(C)C` [Example 8.29] to `CCC(C)Oc1ccc(N2CCC(c3ccc([C@H](C)NC(C)=O)cc3)CC2)cc1OC` (stereo partly shown) [Example 8.54], the IC50 rises from 890 nM to 1500 nM (1.7-fold).

`CCCOc1ccc(N2CCC(c3ccc([C@H](C)NC(C)=O)cc3)CC2)cc1Cl` [Example 8.34] and `CCCCOc1ccc(N2CCC(c3ccc([C@H](C)NC(C)=O)cc3)CC2)cc1Cl` [Example 8.44] are within 1.5-fold of each other in IC50: 260 nM for the first, 290 nM for the second.

Going from `COc1cc(N2CCC(c3ccc([C@H](C)NC(C)=O)cc3)CC2)ccc1OC1CCCC1` [Example 8.38] to `CC(=O)N[C@@H](C)c1ccc(C2CCN(c3cccc(OC4CCCCC4)c3)CC2)cc1` [Example 9.6], the IC50 falls from 1200 nM to 130 nM (9.2-fold). The second is the more potent here.

Going from `CCCCOc1ccc(N2CCC(c3ccc([C@H](C)NC(C)=O)cc3)CC2)cc1F` [Example 8.42] to `CCCC(C)Oc1ccc(N2CCC(c3ccc([C@H](C)NC(C)=O)cc3)CC2)cc1F` (stereo partly shown) [Example 8.58], the IC50 rises from 90 nM to 370 nM (4.1-fold). The first is the more potent here.

First: COc1ccc(N2CCC(c3ccc([C@H](C)NC(C)=O)cc3)CC2)cc1C#N [Example 8.45]
Second: COc1ccc(N2CCC(c3ccc([C@H](C)NC(C)=O)cc3)CC2)cc1Cl [Example 8.46]
The IC50 of the first is 7-fold higher: 7000 nM for the first, 1000 nM for the second.

Compared with `CC(=O)N[C@@H](C)c1ccc(C2CCN(c3ccc(OCC4CCO4)c(C)c3)CC2)cc1` (stereo partly shown) [Example 8.47], `CC(=O)N[C@@H](C)c1ccc(C2CCN(c3ccc(OCC4CCO4)c(F)c3)CC2)cc1` (stereo partly shown) [Example 8.48] is 1.6-fold lower in IC50: 2600 nM for the first, 1600 nM for the second. The second is the more potent here.

First: COc1cc(N2CCC(c3ccc([C@H](C)NC(C)=O)cc3)CC2)ccc1OCC1CCO1 (stereo partly shown) [Example 8.49]
Second: CC(=O)N[C@@H](C)c1ccc(C2CCN(c3ccc(OCC4CCO4)c(Cl)c3)CC2)cc1 (stereo partly shown) [Example 8.50]
The IC50 of the first is 24-fold higher: 26600 nM for the first, 1100 nM for the second. The second is the more potent here.

Compared with `CCC(C)Oc1ccc(N2CCC(c3ccc([C@H](C)NC(C)=O)cc3)CC2)cc1F` (stereo partly shown) [Example 8.53], `CCCC(C)Oc1ccc(N2CCC(c3ccc([C@H](C)NC(C)=O)cc3)CC2)cc1C` (stereo partly shown) [Example 8.56] is 3.3-fold higher in IC50: 300 nM for the first, 1000 nM for the second.

Going from `CCCC(C)Oc1ccc(N2CCC(c3ccc([C@H](C)NC(C)=O)cc3)CC2)cc1C#N` (stereo partly shown) [Example 8.57] to `CCCC(C)Oc1ccc(N2CCC(c3ccc([C@H](C)NC(C)=O)cc3)CC2)cc1Cl` (stereo partly shown) [Example 8.60], the IC50 falls from 3200 nM to 180 nM (18-fold).

Compared with `CCCC(C)Oc1ccc(N2CCC(c3ccc([C@H](C)NC(C)=O)cc3)CC2)cc1OC` (stereo partly shown) [Example 8.59], `CCOc1ccc(N2CCC(c3ccc([C@H](C)NC(C)=O)cc3)CC2)cc1Cl` [Example 8.61] is 2.8-fold lower in IC50: 840 nM for the first, 300 nM for the second. The second is the more potent here.

Compared with `C/C=C/CCOc1ccc(N2CCC(c3ccc([C@H](C)NC(C)=O)cc3)CC2)cc1` [Example 8.64], `CC(=O)N[C@@H](C)c1ccc(C2CCN(c3ccc(OCC/C=C/C4CC4)cc3)CC2)cc1` [Example 8.65] is 1.8-fold higher in IC50: 120 nM for the first, 220 nM for the second. The first is the more potent here.

Going from `CC(=O)N[C@@H](C)c1ccc(C2CCN(c3cccc(OCCC(C)C)c3)CC2)cc1` [Example 9.1, (S)—N-[1-(4-{1-[3-(Isopentyloxy)-phenyl]-piperidin-4-yl}-phenyl)-ethyl]-acetamide] to `COCCOc1cccc(N2CCC(c3ccc([C@H](C)NC(C)=O)cc3)CC2)c1` [Example 9.7], the IC50 rises from 370 nM to 560 nM (1.5-fold). The first is the more potent here.

First: CC(=O)N[C@@H](C)c1ccc(C2CCN(c3cccc(OC4CCCOC4)c3)CC2)cc1 (stereo partly shown) [Example 9.3]
Second: CC(=O)N[C@@H](C)c1ccc(C2CCN(c3cccc(OCC4CCOCC4)c3)CC2)cc1 [Example 9.13]
The IC50 of the first is 2.5-fold higher: 1400 nM for the first, 570 nM for the second. The second is the more potent here.

Going from `CC(=O)N[C@@H](C)c1ccc(C2CCN(c3cccc(OCC(C)(C)C)c3)CC2)cc1` [Example 9.4] to `C=CCOc1cccc(N2CCC(c3ccc([C@H](C)NC(C)=O)cc3)CC2)c1` [Example 9.5], the IC50 rises from 40 nM to 260 nM (6.5-fold). The first is the more potent here.

First: CC#CCOc1cccc(N2CCC(c3ccc([C@H](C)NC(C)=O)cc3)CC2)c1 [Example 9.8]
Second: C=CCCOc1cccc(N2CCC(c3ccc([C@H](C)NC(C)=O)cc3)CC2)c1 [Example 9.10]
The IC50 of the first is 2.6-fold lower: 200 nM for the first, 530 nM for the second. The first is the more potent here.

Going from `CC(=O)N[C@@H](C)c1ccc(C2CCN(c3cccc(OCc4cc(C)on4)c3)CC2)cc1` [Example 9.11] to `CC(=O)N[C@@H](C)c1ccc(C2CCN(c3cccc(OCC4CCCCO4)c3)CC2)cc1` (stereo partly shown) [Example 9.15], the IC50 rises from 170 nM to 370 nM (2.2-fold).

`CC(=O)N[C@@H](C)c1ccc(C2CCN(c3cccc(OCC4CCC4)c3)CC2)cc1` [Example 9.12] and `CC(=O)N[C@@H](C)c1ccc(C2CCN(c3cccc(OCCOC4CC4)c3)CC2)cc1` [Example 9.14] are within 1.5-fold of each other in IC50: 250 nM for the first, 270 nM for the second.
